Here are results for two compounds from PMC10187112 (Journal of Enzyme Inhibition and Medicinal Chemistry, 2023).

Series [1] concerns the target T1, human serotonin 5-HT2A receptor (Homo sapiens, UniProt P28223).
T1 construct: expressed in transfected cells; host or cells: CHO-K1
As to the kind of experiment: Competition radioligand binding, [3H]-Ketanserin, CHO-K1 membranes. Conditions: for Ki: human cloned 5-HT2A; for pKi 5-HT2A/pKi D2: ratio of pKi values.
Method: (§1) Experiments were carried out in membranes from cell lines stably expressing the human cloned receptors.
(§2) Competition radioligand binding assays were performed on membranes isolated from cell lines stable expressing the cloned human receptors, which were either in-house or commercially available. […] Assays (250 μL assay final volume) were carried out in 96-well polypropylene plates in duplicate. In short, suspension of appropriate membrane protein was incubated in assay buffer with addition of the corresponding radioligand, in the presence or absence of tested compound or reference compound. […] After the incubation, the content of the test plates was transferred to 96-well plates with glass fibre filter GF/B or GF/C, previously pre-treated with polyethyleneimine (PEI), and rapidly filtered with the use of vacuum, followed by rapid washing with cold (4 °C) wash buffer. After that the filter plates were dried at 60 °C for 1 h. Then, 30 μL of liquid scintillation cocktail (UniverSol-ES, MP Biomedicals, Solon, OH) was added to each well of the filter plates and the radioactivity was measured in a MicroBeta2 microplate scintillation counter (PerkinElmer, Madrid, Spain).
(§3) Competition binding curves were fitted to a one-site competition binding model (Fit Ki) with the use of Prism 7 software (GraphPad, San Diego, CA). logKi (log of the equilibrium dissociation constant (Ki)) values were obtained after constraining the concentration of radioligand employed in the assay and its dissociation constant (KD) as determined in saturation radioligand binding assays.

For series [2], the target named is T2, human dopamine D3 receptor (Homo sapiens, UniProt P35462).
T2 construct: expressed in transfected cells; host or cells: CHO-K1
As to the kind of experiment: Competition radioligand binding, [3H]-spiperone, CHO-K1 membranes.
Method: as §2, §3

Series [3] concerns the target T3, human histamine H1 receptor (Homo sapiens, UniProt P35367).
T3 construct: expressed in transfected cells; host or cells: CHO-K1
Put plainly: Competition radioligand binding, [3H]-pyrilamine, CHO-K1 membranes.
Method: as §2, §3

Series [4] has as its system mice. As to the kind of experiment: Amphetamine-induced hyperactivity. Conditions: 30 min before amphetamine 5 mg/kg s.c., p < 0.0001.
The next series has as its target T4, human 5-HT1A receptor (Homo sapiens, UniProt P08908).
T4 construct: expressed in transfected cells; host or cells: HEK293
T4 sequence (P08908 1-422): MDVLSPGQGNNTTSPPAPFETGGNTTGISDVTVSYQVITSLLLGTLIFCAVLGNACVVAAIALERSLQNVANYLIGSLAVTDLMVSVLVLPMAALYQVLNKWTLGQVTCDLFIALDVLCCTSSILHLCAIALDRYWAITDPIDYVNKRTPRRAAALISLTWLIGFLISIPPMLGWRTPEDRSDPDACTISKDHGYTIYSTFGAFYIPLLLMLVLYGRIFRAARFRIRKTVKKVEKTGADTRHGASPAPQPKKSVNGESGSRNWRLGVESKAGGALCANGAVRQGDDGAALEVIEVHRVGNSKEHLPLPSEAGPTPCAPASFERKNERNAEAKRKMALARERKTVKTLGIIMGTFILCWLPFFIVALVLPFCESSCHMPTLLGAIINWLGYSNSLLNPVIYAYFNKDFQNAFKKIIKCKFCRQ
As to the kind of experiment: Functional assay of cAMP signalling (5-HT1A agonism), HEK293 cells. It is filed as cell-based. Conditions: for inhibition at 10 µM: HEK293, 10 µM compound, 1 µM forskolin, read-out: 5-HT1A agonism %inh. of FSK response.

Series [5] has as its target T5, human muscarinic M1 receptor (Homo sapiens, UniProt P11229).
T5 construct: expressed in transfected cells; host or cells: CHO-K1
T5 sequence (P11229 1-460): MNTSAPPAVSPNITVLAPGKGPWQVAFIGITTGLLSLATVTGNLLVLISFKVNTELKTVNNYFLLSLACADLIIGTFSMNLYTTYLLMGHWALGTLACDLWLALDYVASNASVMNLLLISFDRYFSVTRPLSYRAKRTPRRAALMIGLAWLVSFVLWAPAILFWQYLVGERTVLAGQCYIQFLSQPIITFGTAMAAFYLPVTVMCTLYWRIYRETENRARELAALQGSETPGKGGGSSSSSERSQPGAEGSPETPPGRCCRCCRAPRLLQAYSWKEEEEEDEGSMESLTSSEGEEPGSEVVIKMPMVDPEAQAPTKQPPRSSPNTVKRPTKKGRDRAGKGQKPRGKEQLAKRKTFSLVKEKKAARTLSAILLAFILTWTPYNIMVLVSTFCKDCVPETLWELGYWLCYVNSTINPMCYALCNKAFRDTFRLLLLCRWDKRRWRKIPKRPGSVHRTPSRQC
Put plainly: Competition radioligand binding, [3H]-pirenzepine, CHO-K1 membranes. The following applies: read-out: % inh. at 10 μM M1.
Method: as §2, §3

The target in series [6] is T6, human dopamine D2 (D2S) receptor (Homo sapiens, UniProt P14416).
T6 construct: expressed in transfected cells; host or cells: CHO-K1
As to the kind of experiment: Competition radioligand binding, [3H]-spiperone, CHO-K1 membranes. The following applies: human cloned D2S; read-out: Ki D2 (converted).
Method: as §1, §2, §3

Series [7] has as its target T7, human dopamine D1 receptor (Homo sapiens, UniProt P21728).
T7 construct: expressed in transfected cells; host or cells: CHO-K1
As to the kind of experiment: Competition radioligand binding, [3H]-SCH-23390, CHO-K1 membranes.
Method: Competition radioligand binding assays were performed on membranes isolated from cell lines stable expressing the cloned human receptors, which were either in-house or commercially available. […] Assays (250 μL assay final volume) were carried out in 96-well polypropylene plates in duplicate. In short, suspension of appropriate membrane protein was incubated in assay buffer with addition of the corresponding radioligand, in the presence or absence of tested compound or reference compound. […] Then, 30 μL of liquid scintillation cocktail (UniverSol-ES, MP Biomedicals, Solon, OH) was added to each well of the filter plates and the radioactivity was measured in a MicroBeta2 microplate scintillation counter (PerkinElmer, Madrid, Spain).
as §3

The test system of series [8] is mice. As to the kind of experiment: Rota-rod test (motor coordination). In kind it is in vivo. Conditions: 60 min after treatment, 3 min. The procedure: To fully assess the impact of selected compounds on animals’ motor coordination, both compounds (at the same doses as were used for spontaneous locomotor activity measurements) were tested also in the rota-rod test. The applied protocol has been already validated in our laboratory[12]^,[62]^,[63]. […] The time spent by each mouse on the rota-rod was measured for 3 min. The additional aim of the rota-rod test was to confirm the appropriate selection of doses for further behavioural examination. […] After such confirmation, the above-mentioned doses were chosen for the rest of behavioural tests.

In series [9] the test system is mice. As to the kind of experiment: Spontaneous locomotor activity. Conditions: recorded 30 min, 30 min after injection.
Another series has as its target human D2S receptor (Homo sapiens, UniProt P14416). Put plainly: Functional assay of cAMP signalling (D2 antagonism), CHO-K1 cells. The following applies: for inhibition at 1 µM: CHO-K1, read-out: % of inhibition of 1 µM dopamine response; for inhibition at 10 µM: CHO-K1, read-out: D2 antagonism %inh. of DA response.
The target in the next series is T8, human 5-HT2A receptor (Homo sapiens, UniProt P28223).
T8 construct: expressed in transfected cells; host or cells: CHO-K1
Put plainly: Functional assay of inositol phosphate production (5-HT2A antagonism), CHO-K1 cells. In kind it is cell-based. Conditions: for inhibition at 10 µM: CHO-K1, read-out: 5-HT2A antagonism %inh. of 5-HT response; for Kb: read-out: 5-HT2A antagonism (IP signalling) Kb.

Series [10] addresses T9, human serotonin 5-HT1A receptor (Homo sapiens, UniProt P08908).
T9 construct: expressed in transfected cells; host or cells: HEK293
T9 sequence (P08908 1-422): T4 sequence (P08908 1-422)
Put plainly: Competition radioligand binding, [3H]-8-OH-DPAT, HEK293 membranes. The following applies: human cloned 5-HT1A.
Method: as §1, §2, §3

Another series deals with T10, human 5-HT7 receptor (Homo sapiens, UniProt P34969).
T10 construct: expressed in transfected cells; host or cells: HEK293
As to the kind of experiment: Competition radioligand binding, [3H]-SB269970, HEK293 membranes.

Series [11] relates to mice. As to the kind of experiment: Passive avoidance (PA) test (memory). Conditions: 60 min before test.
Series [12] has as its system mice. As to the kind of experiment: Elevated plus maze (EPM) test (anxiety). Conditions: 60 min before test.
Where [13] appears, read: read-out: Ki 5-HT1A (converted).

Where two headings read alike, the source gives them in different places.

T1 sequence (P28223 whole entry): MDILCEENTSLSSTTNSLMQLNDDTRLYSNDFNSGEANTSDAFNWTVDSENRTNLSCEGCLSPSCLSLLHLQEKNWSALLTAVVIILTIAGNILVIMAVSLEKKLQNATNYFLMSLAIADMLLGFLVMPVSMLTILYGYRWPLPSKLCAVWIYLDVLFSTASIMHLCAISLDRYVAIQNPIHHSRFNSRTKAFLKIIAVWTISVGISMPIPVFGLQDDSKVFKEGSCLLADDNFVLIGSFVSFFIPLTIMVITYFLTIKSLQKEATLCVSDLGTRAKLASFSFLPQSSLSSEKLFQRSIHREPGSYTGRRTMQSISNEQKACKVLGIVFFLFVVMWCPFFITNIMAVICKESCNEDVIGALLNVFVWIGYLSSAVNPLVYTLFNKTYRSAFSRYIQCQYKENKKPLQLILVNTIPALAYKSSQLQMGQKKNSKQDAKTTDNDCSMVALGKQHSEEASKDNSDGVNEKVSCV
T8 sequence (P28223 whole entry): as above
Sequence of human D2S receptor (P14416 1-414 isoform P14416-2): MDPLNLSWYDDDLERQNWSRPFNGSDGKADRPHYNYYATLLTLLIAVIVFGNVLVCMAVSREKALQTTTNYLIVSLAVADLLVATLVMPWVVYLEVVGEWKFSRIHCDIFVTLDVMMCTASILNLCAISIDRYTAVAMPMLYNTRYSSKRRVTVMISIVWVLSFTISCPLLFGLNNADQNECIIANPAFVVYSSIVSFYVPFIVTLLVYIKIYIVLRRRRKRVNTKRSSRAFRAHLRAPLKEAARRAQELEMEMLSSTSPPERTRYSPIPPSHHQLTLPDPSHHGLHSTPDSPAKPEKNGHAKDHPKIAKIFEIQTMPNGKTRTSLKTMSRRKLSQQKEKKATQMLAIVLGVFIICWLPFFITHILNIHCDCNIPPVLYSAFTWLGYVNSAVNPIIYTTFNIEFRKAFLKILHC
T2 sequence (P35462 whole entry): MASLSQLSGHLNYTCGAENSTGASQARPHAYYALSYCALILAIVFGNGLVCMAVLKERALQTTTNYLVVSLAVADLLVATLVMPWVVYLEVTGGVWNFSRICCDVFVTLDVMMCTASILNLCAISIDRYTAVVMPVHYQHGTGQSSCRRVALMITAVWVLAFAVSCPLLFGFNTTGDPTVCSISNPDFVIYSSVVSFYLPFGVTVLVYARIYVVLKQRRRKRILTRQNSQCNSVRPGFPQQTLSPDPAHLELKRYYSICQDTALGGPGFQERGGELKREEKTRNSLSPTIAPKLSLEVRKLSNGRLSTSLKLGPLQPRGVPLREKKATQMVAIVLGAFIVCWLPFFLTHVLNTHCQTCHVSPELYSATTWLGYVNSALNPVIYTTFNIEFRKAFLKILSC
T10 sequence (P34969 whole entry): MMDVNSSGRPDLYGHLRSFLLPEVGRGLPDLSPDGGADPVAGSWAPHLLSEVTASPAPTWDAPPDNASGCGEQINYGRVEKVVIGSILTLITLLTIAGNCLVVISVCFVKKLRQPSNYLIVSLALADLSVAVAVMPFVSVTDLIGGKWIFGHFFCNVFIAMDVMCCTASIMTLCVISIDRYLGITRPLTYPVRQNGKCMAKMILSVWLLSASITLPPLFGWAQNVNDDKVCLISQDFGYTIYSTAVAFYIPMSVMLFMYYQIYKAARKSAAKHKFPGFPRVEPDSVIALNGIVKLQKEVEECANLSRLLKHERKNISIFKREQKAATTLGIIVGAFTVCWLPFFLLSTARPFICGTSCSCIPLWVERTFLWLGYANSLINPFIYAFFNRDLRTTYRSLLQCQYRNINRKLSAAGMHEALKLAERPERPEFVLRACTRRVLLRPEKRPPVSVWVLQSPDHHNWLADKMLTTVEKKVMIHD
T7 sequence (P21728 whole entry): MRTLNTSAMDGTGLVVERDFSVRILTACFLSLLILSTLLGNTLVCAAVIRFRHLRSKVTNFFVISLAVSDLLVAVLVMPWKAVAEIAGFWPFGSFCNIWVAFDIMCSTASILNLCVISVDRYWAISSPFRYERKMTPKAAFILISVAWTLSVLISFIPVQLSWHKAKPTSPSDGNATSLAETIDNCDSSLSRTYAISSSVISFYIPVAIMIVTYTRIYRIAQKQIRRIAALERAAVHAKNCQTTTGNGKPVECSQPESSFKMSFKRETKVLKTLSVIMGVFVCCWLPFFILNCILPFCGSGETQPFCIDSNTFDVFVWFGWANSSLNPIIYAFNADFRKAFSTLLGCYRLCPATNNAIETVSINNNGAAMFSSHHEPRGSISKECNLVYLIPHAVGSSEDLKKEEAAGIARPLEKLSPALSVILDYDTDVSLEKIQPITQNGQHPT
T3 sequence (P35367 whole entry): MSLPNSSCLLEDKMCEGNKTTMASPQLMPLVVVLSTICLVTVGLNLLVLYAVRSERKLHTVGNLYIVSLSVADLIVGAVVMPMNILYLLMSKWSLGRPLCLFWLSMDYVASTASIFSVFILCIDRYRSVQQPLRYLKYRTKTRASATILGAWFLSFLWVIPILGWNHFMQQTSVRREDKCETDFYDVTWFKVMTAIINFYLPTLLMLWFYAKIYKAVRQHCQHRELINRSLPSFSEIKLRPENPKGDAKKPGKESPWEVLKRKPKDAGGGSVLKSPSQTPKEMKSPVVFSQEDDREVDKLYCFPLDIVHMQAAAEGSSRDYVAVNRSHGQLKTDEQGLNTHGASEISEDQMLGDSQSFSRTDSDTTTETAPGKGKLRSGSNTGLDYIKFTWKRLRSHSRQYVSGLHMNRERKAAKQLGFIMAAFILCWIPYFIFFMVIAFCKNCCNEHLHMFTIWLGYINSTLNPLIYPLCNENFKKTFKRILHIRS
T6 sequence (P14416 1-414 isoform P14416-2): as the sequence (P14416 1-414 isoform P14416-2) above
Method for human 5-HT1A receptor: The activity of selected compounds at 5-HT1A receptor was investigated in cell-based functional assays of cAMP signalling in the HEK293 cell line stably expressing the cloned human 5-HT1A receptor also employed for the radioligand binding assays. […] Test compounds were added to the assay plates from 5× working dilution intermediate plates, which were prepared by means of acoustic noncontact dispensing of the compounds, keeping vehicle concentration (0.1% DMSO) constant in the assay.
Method for human 5-HT2A receptor: The activity of selected compounds at 5-HT2A receptors was investigated in cell-based functional assays of IP production in the CHO-K1 cell line stably expressing the cloned human 5-HT2A receptor also employed for the radioligand binding assays. Twenty-four hours before the experiment, cells in culture were seeded in complete growth medium prepared with dialysed foetal bovine serum, in half-area, white, 96-well tissue culture plates (Corning®, Fisher Scientific SL, Madrid, Spain). At the day of assay, plates were washed with assay buffer (kit stimulation buffer) and incubated with test compounds for 10 min at 37 °C. Test compounds were added to the assay plates from 7× working dilution intermediate plates that were prepared by means of acoustic noncontact dispensing of the compounds, keeping vehicle concentration (0.1% DMSO) constant in the assay. […] After this time, cellular IP levels were quantified by using the HTRF-based inositol monophosphate kit IP-One Gq kit (Cisbio, Bioassays, Codolet, France) following the manufacturer’s protocol. […] Basal IP levels were determined in control wells in the absence of compound and agonist. […] Kb value of the compounds was estimated as described above for functional assays of cAMP signalling at D2 receptors.
Method for human 5-HT7 receptor: as §2, §3

Take `O=C(NCCCN1CCN(c2ccccc2)CC1)c1n[nH]c2ccccc12` [Compound 1, N-(3-(4-phenylpiperazin-1-yl)propyl)-1H-indazole-3-carboxamide]: the Ki in series [1] was 35.6 nM; in series [2], 711 nM; in series [3], 474 nM; in series [6], 69 nM; in [7], 241 nM; in [10] (setting [13]) it was 155 nM. In addition, on human 5-HT7 receptor, the Ki is 540 nM. Moreover, the “pKi 5-HT2A/pKi D2” value in [1] came to 1.04. Besides, in the series with mice [4] (10 mg/kg i.p.), the “Effect on amphetamine-induced hyperactivity” value is listed as “significantly reduced hyperactivity induced by amphetamine”. Also, at human 5-HT1A receptor, the EC50 turned out to be 324 ± 69 nM. The inhibition at 10 µM on human 5-HT1A receptor was 85.1 ± 3.3%; in series [5] it was 21 ± 6%; at human D2S receptor, 50.3 ± 6.3%; at human 5-HT2A receptor it was 99.1 ± 2.5%. Besides, in the series with mice [8] (10, 20, and 40 mg/kg i.p.), the “Motor coordination (rota-rod)” value was “lack of statistically significant difference”. Moreover, the Spontaneous locomotor activity result was “did not impair animals’ mobility” in the series with mice [9] (10 mg/kg i.p.); “statistically significant decrease in the locomotor activity” with mice [9] (20 mg/kg i.p., p < 0.05); “statistically significant decrease in the locomotor activity” in the series with mice [9] (40 mg/kg i.p., p < 0.05). For the same compound, the Kb is 22.5 nM on human D2S receptor and 80.2 ± 20.1 nM on human 5-HT2A receptor. In addition, the inhibition at 1 µM on human D2S receptor worked out at 48.5 ± 4.9%. For the same compound, in the series with mice [11] (10 mg/kg i.p.), the “Effect on PA performance (memory acquisition)” value is on record as “no statistically significant effect on PA performance”. Besides, the “Effect on anxiety in EPM test” value with mice [12] (10 mg/kg i.p.) is on record as “anxiolytic effect”. Also, the “Percentage of open arm entries (EPM)” value with mice [12] (10 mg/kg i.p., vs. control) is on record as “increase”. In the series with mice [12] (10 mg/kg i.p., vs. control), the “Percentage of open arm time (EPM)” value is “increase”.

In the case of `O=C(NCCCN1CCN(c2cccc(F)c2)CC1)c1n[nH]c2ccccc12` [Compound 10, N-(3-(4-(3-fluorophenyl)piperazin-1-yl)propyl)-1H-indazole-3-carboxamide], the Ki in series [1] is 94.4 nM; in series [2] it was 719 nM; in [3] it was 1000 nM; in series [7], 181 nM; in series [10] (mean ± SEM, read-out: pKi 5-HT1A (converted)), 112 nM; in series [10] (setting [13]), 114 nM. This compound also gave a Ki on human 5-HT7 receptor of 589 nM. In addition, in series [1], the “pKi 5-HT2A/pKi D2” value is reported as 1.07. The “Effect on amphetamine-induced hyperactivity” value with mice [4] (40 mg/kg i.p.) is reported as “significantly reduced hyperactivity induced by amphetamine”. Also, on human 5-HT1A receptor, the concentration for a half-maximal effect (EC50) was found to be 356 ± 83 nM. The inhibition at 10 µM turned out to be 90.2 ± 4.1% at human 5-HT1A receptor, 0% in series [5], 52.6 ± 9.8% on human D2S receptor and 96.8 ± 2% at human 5-HT2A receptor. Moreover, in the series on mice [8] (20, 40, and 80 mg/kg i.p.), the “Motor coordination (rota-rod)” value was “lack of statistically significant difference”. In addition, in the series on mice [9] (20, 40, and 80 mg/kg i.p.), the Spontaneous locomotor activity entry is listed as “did not induce statistically significant changes”. The values for the antagonist dissociation constant (Kb) on human D2S receptor and on human 5-HT2A receptor were 31.2 nM and 101 ± 31 nM, respectively. The inhibition at 1 µM on human D2S receptor was found to be 50.8 ± 5.4%. Besides, the “Effect on PA performance (memory acquisition)” value with mice [11] (40 mg/kg i.p.) is reported as “no statistically significant effect on PA performance”. The “Effect on anxiety in EPM test” value in the series on mice [12] (40 mg/kg i.p.) is on record as “no statistically significant effect on the EPM performance”.
